The numbers were not newly measured in patent US20250228918A1, “METHODS OF CONTROLLING BODY WEIGHT AND/OR ENERGY EXPENDITURE” (Yale University, priority 2022, published 2025), which cites them from elsewhere.

The conditions of the data set: in vivo.

`C[C@H]1Oc2cc(cnc2N)-c2c(nn(C)c2C#N)CN(C)C(=O)c2ccc(F)cc21` [Lorlatinib]: the brain penetration entry is “penetrates well into brain”.
